# Measured values taken from patent publication US20240117005A1, “NOVEL BICYCLIC PEPTIDES” (THE COUNCIL OF THE QUEENSLAND INSTITUTE OF MEDICAL RESEARCH, priority 2021, published 2024).
# Columns and labels:
# PDL2:IMPα1 complex = target: T1, PDL2:IMPα1 complex (Homo sapiens, UniProt P52292); test: Binding specificity assay (DUOLINK PDL2 and IMPα1); type: cell-based; settings: MDA-MB-231, any concentration (10 μM to 0.00975 μM)
# T1 construct: with concentrations ranging from 10 μM to 0.00975 μM; endogenous in cells; host or cells: MDA-MB-231
# Method: MDA-MB-231 cells were treated with DL-2; with concentrations ranging from 10 μM to 0.00975 μM. Cover slips were mounted on glass microscope slides with Prolong nucleus glass Antifade reagent (Life Technologies). PDL2 and IMPα1 DUOLINK Digital images were analyzed using ImageJ software (ImageJ, NIH, Bethesda, MD, USA) and graphs represent the mean DOT Fluorescent Intensity in the nucleus or the cytoplasm compartments with significant differences calculated as per Kruskal-Wallis one-way ANOVA.
# [1] = test system: metastatic initiating cells (MICs) from stage IV metastatic cancer patients; test: Pre-clinical treatment of MICs from patient liquid biopsies; type: cell-based, human; settings: cancer cells from NSCLC, TNBC and melanoma patients
# Source text: Mesenchymal MICs were isolated from TNBC, lung cancer and melanoma patient liquid biopsies (scored for RECIST v1.1 for immunotherapy/therapeutic resistance or responsiveness (Complete Response, Partial Response or Progressive Disease) and pre-clinically screened with either vehicle control or the nuclear PDL1 inhibitor, DL-2. Samples were fixed and immunofluorescence microscopy performed on these cells with primary antibodies targeting CSV, PDL1-PTM1 (acetylated nuclear PDL1), ALDH1A1 and ABCB5. Graph represents the CFI values for CSV, NFI for PDL1- PTM1, ALDH1A1 and FI for ABCB5 measured using the ASI Digital pathology automated system to select the nucleus minus background (n≥40 cells/sample/5 patients a group).
# PDL2 = test: Immunofluorescence microscopy of nuclear PDL2; type: cell-based, human; settings: MDA-MB-231 breast cancer cell line
# Method: The cells were fixed and immunofluorescence microscopy was performed. Digital images were analysed using ImageJ software (ImageJ, NIH, Bethesda, MD, USA) to determine the mean nuclear fluorescent intensity (TNFI) in cells measured using ImageJ to select the nucleus minus background (n=>500 cells/sample).
# MCF-7 cells = test: RNA-seq differential expression, DL-2 vs. Stimulated; type: cell-based, human; settings: MCF-7, DL-2 vs. Stimulated (PMA)
# Source text: RNA-sequencing (RNA seq) data were obtained from human breast cancer cell line MCF-7 with and without DL-2 treatment. A total of 9 samples from […] experimental groups were collected, as follows: • Control (non-stimulated control, Ctrl) (n=3); • Stimulated (PMA stimulated control) (n=3); • DL-2 (treated with DL-2 and stimulated with PMA) (n=3); For the DL-2 treatment group, the MCF-7 cells were exposed to DL-2 first, then stimulated with PMA thereafter. RNA-seq data were generated, fastq data were downloaded to the QIMR Berghofer server, and then archived to the HSM by Scott Wood. Sequence reads were trimmed for adapter sequences using Cutadapt (version 1.9; Martin (2011)) and aligned using STAR (version 2.5.2a; Dobin et al. (2013)) to the GRCh37 assembly with the gene, transcript, and exon features of Ensembl (release 70) gene model. Quality control metrics were computed using RNA-SeQC (version 1.1.8; DeLuca et al. (2012)) and expression was estimated using RSEM (version 1.2.30; Li and Dewey (2011)). In our analysis, we corrected for library size by dividing each sample's gene count by million reads mapped. This procedure is a common approach known as counts per million (CPM). We further corrected for differences in RNA composition using a method proposed by Robinson and Oshlack (2010a) called trimmed mean of M values (TMM). We used the function calcNormFactors( ) from the edgeR package (Robinson, McCarthy, and Smyth (2010b)) to obtain TMM factors and used these to correct for differences in RNA composition. Differential expression (DE) analysis was performed using the R package edgeR (Robinson, McCarthy, and Smyth (2010b)). Note that the inputs for DE analysis are the filtered but not normalised read counts, since edgeR performs normalisation (library size and RNA composition) internally. The […]( ) function was used to fit a quasi-likelihood negative binomial generalised log-linear model to the read counts for each gene. Using the […]( ) function, we conducted gene-wise empirical Bayes quasi-likelihood F-tests for a given contrast. As per the edgeR user's guide, “the quasi-likelihood method is highly recommended for differential expression analyses of bulk RNA-seq data [versus the likelihood ratio test] as it gives stricter error rate control by accounting for the uncertainty in dispersion estimation”.
# [2] = test system: PKCθ, LSD1, p65, C-Rel, SET, pSTAT3; test: Determination of nuclear-associated proteins; type: cell-based, human; settings: MDA-MB-231, 10 μM
# Method: MDA-MB-231 cells were treated with DL-2 with concentration of 10 μM. MDA-MB-231 cells were treated with DL-2 or control and were permeabilised before being probed with the antibodies specific for PKCθ, LSD1, p65, C-Rel, SET, pSTAT3. Cover slips were mounted on glass microscope slides with ProLong nucblue glass Antifade reagent (Life Technologies). Digital images were analysed using ImageJ software (ImageJ, NIH, Bethesda, MD, USA) and graphs represent the mean fluorescence intensity in the nucleus or the cytoplasm compartments with significant differences calculated as per Mann-Whitney pairwise comparison.
structure (smiles),measurement,setting,value
CCCCCCCCCCCCCC(=O)NC(C)C(=O)NC1CSCc2cc3cc(c2)CSC[C@H](NC(=O)[C@H](Cc2ccccc2)NC(=O)[C@H](C(C)CC)NC(=O)[C@H](Cc2ccccc2)NC(=O)[C@H]([C@@H](C)O)NC(=O)C(CC(C)C)NC1=O)C(=O)N[C@@H](CCCNC(C)=N)C(=O)N[C@@H](CC(C)C)C(=O)N[C@@H](CCCNC(=N)N)C(=O)N[C@@H](CCCCN)C(=O)NCC(=O)N[C@@H](CCCNC(=N)N)C(=O)NC(C(=O)N[C@@H](CCSC)C(=O)NC(CCSC)C(=O)N[C@@H](CC(=O)O)C(=O)NC(C(=O)N[C@@H](CCCCN)C(=O)NC(CCCCN)C(=O)O)C(C)C)CSC3 (mixture of isomers) [DL-2],PDL2:IMPα1 complex (DUOLINK),PDL2:IMPα1 complex,no significant effect
same,"expression of ABCB5, ALDH1A1 and PDL1-PTM1 in MICs",[1],inhibited expression
same,nuclear expression of PDL2,PDL2,no effect at all
same,logFC A2M,MCF-7 cells,1.461
same,logFC AKR1C1,MCF-7 cells,−1.324
same,logFC ALDH1A3,MCF-7 cells,−0.9248
same,logFC ATP6V0B,MCF-7 cells,0.647
same,logFC B3GAT3,MCF-7 cells,0.8186
same,logFC BSCL2,MCF-7 cells,0.9849
same,logFC C19orf10,MCF-7 cells,0.7917
same,logFC CAMSAP2,MCF-7 cells,−0.7468
same,logFC CD99,MCF-7 cells,0.6829
same,logFC CDKN2B,MCF-7 cells,−0.5982
same,logFC CHPF,MCF-7 cells,0.6073
same,logFC CTNNAL1,MCF-7 cells,−0.5943
same,logFC CTSD,MCF-7 cells,1.079
same,logFC CXCL12,MCF-7 cells,1.155
same,logFC ELF1,MCF-7 cells,−0.7207
same,logFC ENTPD1,MCF-7 cells,0.8956
same,logFC ETV3,MCF-7 cells,−0.6424
same,logFC FILIP1L,MCF-7 cells,−0.7563
same,logFC FOXN3,MCF-7 cells,−0.75
same,logFC IFIT2,MCF-7 cells,−1.213
same,logFC IGFBP2,MCF-7 cells,0.7385
same,logFC IGFBP4,MCF-7 cells,0.6164
same,logFC INPP4B,MCF-7 cells,−0.6381
same,logFC KIAA1324,MCF-7 cells,0.6324
same,logFC KLHL5,MCF-7 cells,−1.028
same,logFC MANF,MCF-7 cells,0.8172
same,logFC MMP9,MCF-7 cells,−1.43
same,logFC MOB1A,MCF-7 cells,−0.6723
same,logFC MUC1,MCF-7 cells,0.9921
same,logFC NEDD9,MCF-7 cells,−0.7516
same,logFC NEU1,MCF-7 cells,0.6165
same,logFC PPIB,MCF-7 cells,0.8358
same,logFC PRDX4,MCF-7 cells,0.6511
same,logFC QKI,MCF-7 cells,−0.8595
same,logFC RAI14,MCF-7 cells,−0.8091
same,logFC SERPINA3,MCF-7 cells,1.008
same,logFC SGCG,MCF-7 cells,1.126
same,logFC SIRT1,MCF-7 cells,−0.7444
same,logFC SLC7A11,MCF-7 cells,−0.8545
same,logFC STC1,MCF-7 cells,0.7265
same,logFC TACC1,MCF-7 cells,−0.6077
same,logFC TAPBP,MCF-7 cells,0.5968
same,logFC TBC1D5,MCF-7 cells,−0.897
same,logFC TCN1,MCF-7 cells,2.029
same,logFC TFF1,MCF-7 cells,1.253
same,logFC TMED3,MCF-7 cells,0.6673
same,logFC TXNRD1,MCF-7 cells,−0.7667
same,logFC ZMYND11,MCF-7 cells,−2.883
same,logFC ZNF267,MCF-7 cells,−0.6577
same,"off-target effects on nuclear proteins (PKCθ, LSD1, p65, C-Rel, SET, pSTAT3)",[2],No off-target effects were observed
